The test system of series [1] is spontaneous canine tumors. The conditions noted are these: dog, in vivo; cited from earlier work.
The subject of series [2] is tumor growth. The note with it: mouse, in vivo; cited from earlier work.
In series [3] the test system is first-relapse NHL. The note with it: with lomustine vs lomustine and placebo; cited from earlier work.
Series [4] concerns MSC. The conditions noted are these: in vivo; cited from earlier work.
For series [5], the system named is canine osteosarcoma. The note with it: non-metastatic dogs, cisplatin followed by L-MTP-PE or placebo; cited from earlier work.
The subject of series [6] is canine MGT. The note with it: dog, in vivo; cited from earlier work.
Series [7] relates to high-grade osteosarcoma. The conditions noted are these: added to doxorubicin, cisplatin and high-dose methotrexate; cited from earlier work.
Series [8] concerns Canine TCC. The conditions noted are these: dog, in vivo; cited from earlier work.
The test system of series [9] is circulating neutrophil counts. The note with it: immunosuppressive doses; cited from earlier work.
For series [10], the system named is NHL. The conditions noted are these: cited from earlier work.
Series [11] deals with soft tissue sarcoma. The conditions noted are these: intralesional, biphasic electric pulses; cited from earlier work.
For series [12], the system named is soft tissue sarcoma. The note with it: cited from earlier work.
Series [13] relates to canine soft tissue sarcoma. The note with it: bleomycin and electric pulses; cited from earlier work.
Series [14] has as its system cultured cells. The conditions noted are these: cited from earlier work.
Series [15] has as its system soft tissue sarcoma (STS) or malignant histiocytosis (MH). The note with it: dog, in vivo.
Description: Depletion of MSC is accomplished by i.v. administration of LC, which is prepared as described for treatment of dogs with malignant histiocytosis (34). The LC is administered once every 2 weeks by slow i.v. infusion over 60 minutes, at a dose of 0.5 ml/kg.

Read-outs that look alike come from different tables or passages of the source. Square brackets hold non-standard residues; d marks the D form. Peptide text beside a SMILES is read from it. d(aIle) = CC[C@H](C)[C@@H](N)C(=O)O; Nva = CCC[C@H](N)C(=O)O; Sar = CNCC(=O)O Where only a bound is given, the exact number is not on record here.

Data on 11 compounds can be found in US20160349242A1, “PLATFORM TECHNOLOGIES FOR SPONTANEOUSLY OCCURRING DISEASES” (Oatmeal Biotechnologies Group, LLC, priority 2009, published 2016).

For `CCC[C@H](NC(=O)[C@@H](NC(=O)[C@H](NC(=O)[C@@H](NC(=O)CNC(=O)CN(C)C(C)=O)C(C)C)[C@@H](C)CC)[C@@H](C)O)C(=O)N[C@H](C(=O)N[C@@H](CCCNC(=N)N)C(=O)N1CCC[C@H]1C(=O)NCC)[C@@H](C)CC` [ABT-526] (Ac-[Sar]GV[d(aIle)]T[Nva]IRP-NHEt), the relative activity result in series [1] is recorded as “more active than ABT-510”. Also, in series [2], the tumor growth result is recorded as “slow tumor growth”. In series [3], the duration of response result is listed as “modestly enhanced” and the “number of cases responding to chemotherapy” value is reported as “did not increase”.

Regarding `CC1=C(/C=C/C(C)=C/C=C/C(C)=C/C(=O)O)C(C)(C)CCC1` [ATRA, all-trans retinoic acid], in [4], the spontaneous anti-tumor immunity result is recorded as “improved” and the vaccine responses entry is “significantly enhanced”.

As to `N.N.[Cl][Pt][Cl]` [cisplatin], the median survival time in [5] is 9.8 months.

In the case of `COc1cccc2c1C(=O)c1c(O)c3c(c(O)c1C2=O)C[C@@](O)(C(=O)CO)C[C@@H]3O[C@H]1C[C@H](N)[C@H](O)[C@H](C)O1` [doxorubicin], the anti-tumor activity entry in [6] is on record as “a few partial responses”.

For the compound `O=P1(NCCCl)OCCCN1CCCl` (stereo not drawn) [ifosfamide], in [7], the “drug free survival (DFS)” value is listed as “did not significantly improve” and the “overall survival (OS)” value is “did not significantly improve”.

With `CN1C(C(=O)Nc2ccccn2)=C(O)c2ccccc2S1(=O)=O` [piroxicam], the objective response rate in series [8] was 18%.

For `C[C@]12C=CC(=O)C=C1CC[C@@H]1[C@@H]2C(=O)C[C@@]2(C)[C@H]1CC[C@]2(O)C(=O)CO` [prednisone], the “time to rebound in circulating neutrophil counts” value in [9] was 48 to 72 h.

On to `Cc1ncc(CO)c(CO)c1O` [pyridoxine], for which the “relative risk of developing PPES, placebo group versus pyridoxine” value in [10] (daily Doxil with oral pyridoxine or placebo) is on record as 4.2 times. Moreover, in series [10] (dog, in vivo), the PPES symptoms entry is “delayed and lessened the symptoms”; the “remission rates between treatment groups” value was “No difference”.

For the compound `CC/C(=C(\c1ccccc1)c1ccc(OCCN(C)C)cc1)c1ccccc1` [tamoxifen], in [6], the anti-tumor activity result is listed as “does not have demonstrable anti-tumor activity”.

Turning to bleomycin, in [11], the long term remissions is reported as 40% and the overall response rate is reported as 80%. For the same compound, the “average time of recurrence” value in [12] (intraoperative bleomycin with electrotherapy) is listed as 12 months. The “average time of recurrence” value in series [12] (postoperative bleomycin with electrotherapy) is on record as 19 months. Besides, in series [13], the “median time to recurrence” value is reported as 730 days and the response rate is recorded as 95%. Besides, the internalized fraction in [14] is reported as under 0.1%.

Consider liposomal clodronate [LC], for which the tolerability entry in series [15] is reported as “well-tolerated”.
